Measurements as given in patent publication US20140263071A1, “METHOD FOR COLLECTING METALS” (CHEMEC OY AB, priority 2011, published 2014).

Legend:
[1] = Separation of silver with complexation agent by HCl elution (Example 20); conditions: for Concentration after 1a: mixture of Ag^+, 1a 10 g, 48 h; for End concentration in 1a: after HCl elutions; for Metals in 0.01M HCl: elution of loaded 1a with 0.01 M HCl (60 ml); for Metals in 0.1M HCl: elution of loaded 1a with 0.1 M HCl (60 ml); for Metals in 1M HCl: elution of loaded 1a with 1 M HCl (60 ml)
Description: A mixture of Cu(NO3)2×3H2O (20 ml, 0.1 M), AgNO3 (20 ml, 0.1 M), Fe(NO3)3 (20 ml, 0.1 M), water (40 ml) and 1a (10 g) were stirred for 48 h at room temperature. Solids were collected to sintered disc (porosity G-4), washed with water (60 ml) and eluted with 0.01 M (60 ml), 0.1 M (60 ml) and 1 M (60 ml) HCl solutions. Amounts of each metals in eluted HCl solutions were determined by AAS using standard procedures.

[2] = Removal of Cr^3+ from acidic solution, TS 4 diluted 1:100 (Example 19); conditions: TS 4 diluted 1:100, pH 3.67, 1.0 g agent in 50 ml, 24 h
Description: A test solution containing 24000 mg/l of Na^+; 50-2000 mg/l of Ca^2+, Cr^3+, K^+ and Mg^2+; and trace amount of Al^3+, Fe^2/3+, Mn^2+, Ni^2+, Sr^2+, V^4+, and Zn^2+ cations were prepared.
TS 4 was diluted to 1:100 with water, pH (3.67) of the solution was determined and sample A was taken. A part (50 ml) of the diluted solution was treated with 1a, 6d or 7a (1.0 g) for 24 h with stirring at room temperature. After filtration trough 0.2 μm syringe filter, the expulsion per for Cr(III) was determined compared to original solution A. The results of expulsion per cents of Cr^3+ and some other elements are given in Table 13.

[3] = Effect of complexation agent amount on expulsion percent (Example 11); conditions: Ca^2+ 2 ppm, pH 2.9
Description: A water solution (110 ml) containing known amount of single cationic element or elements, typically 0.5-200 ppm, was prepared from Merch Titrisol® standard solution. After adjusting pH by using acid (e.g. HCl or HNO3) or base (e.g. NaOH) to desired initial value, sample A (10 ml) was taken followed by adding 100 mg of selected solid complexation agent. The mixture was stirred at room temperature for 24 h and sample B (10 ml) was taken. Samples A and B were filtrated separately trough 0.2 μm syringe filter and the concentration of the studied element or elements in both solution was determined by using atomic absorption spectrophotometer. The expulsion percent was determined from the concentration differences between the sample solutions A and B.
Effect of amount of complexation agent 1a to expulsion percent was tested with 2.0 ppm calcium (Ca^2+) solution. A solution (100 ml) containing 2.0 ppm of calcium was stirred for 24 h with desired amount of complexation agent 1a (25 to 301 mg) at pH 2.9. Expulsions percent were determined for each solution using the general procedure and the results are collected in Table 6.

NCCCCCCCCCCC(O)(P(=O)(O)O)P(=O)(O)O [Compound 1a, 11-Amino-1-hydroxyundecane-1,1-diyldiphosphonic acid]
Amounts of metals in 1a ([1]; Ag^+): 1320 mg/L
Concentration after 1a ([1]; Ag^+, initial 2050 mg/l, Cu^2+, Fe^3+): 730 mg/L
End concentration in 1a ([1]; Ag^+): 1300 mg/L
Metals in 0.01M HCl ([1]; Ag^+): 10 mg/L
Metals in 0.1M HCl ([1]; Ag^+): 0 mg/L
Metals in 1M HCl ([1]; Ag^+): 10 mg/L
Amounts of metals in 1a ([1]; Cu^2+): 210 mg/L
Concentration after 1a ([1]; Cu^2+, initial 1310 mg/l, Cu^2+, Fe^3+): 1100 mg/L
End concentration in 1a ([1]; Cu^2+): 0 mg/L
Metals in 0.01M HCl ([1]; Cu^2+): 0 mg/L
Metals in 0.1M HCl ([1]; Cu^2+): 10 mg/L
Metals in 1M HCl ([1]; Cu^2+): 200 mg/L
Amounts of metals in 1a ([1]; Fe^3+): 80 mg/L
Concentration after 1a ([1]; Fe^3+, initial 1040 mg/l, Cu^2+, Fe^3+): 960 mg/L
End concentration in 1a ([1]; Fe^3+): 0 mg/L
Metals in 0.01M HCl ([1]; Fe^3+): 10 mg/L
Metals in 0.1M HCl ([1]; Fe^3+): 10 mg/L
Metals in 1M HCl ([1]; Fe^3+): 60 mg/L
Expulsion [%] Ca^2+ ([2]; Ca^2+): 67%
Expulsion [%] Cr^3+ ([2]; Cr^3+): 91%
Expulsion [%] K^+ ([2]; K^+): 36%
Expulsion [%] Mg^2+ ([2]; Mg^2+): 74%
Expulsion [%] Na^+ ([2]; Na^+): 14%
Expulsion [%] Zn^2+ ([2]; Zn^2+): >39^1) %
Expulsion [%] ([3]; 25 mg of 1a in 100 ml): 41.3%
Expulsion [%] ([3]; 52 mg of 1a in 100 ml): 45.9%
Expulsion [%] ([3]; 75 mg of 1a in 100 ml): 53.6%
Expulsion [%] ([3]; 101 mg of 1a in 100 ml): 59.4%
Expulsion [%] ([3]; 125 mg of 1a in 100 ml): 63.6%
Expulsion [%] ([3]; 150 mg of 1a in 100 ml): 67.1%
Expulsion [%] ([3]; 175 mg of 1a in 100 ml): 70.2%
Expulsion [%] ([3]; 200 mg of 1a in 100 ml): 71.0%
Expulsion [%] ([3]; 225 mg of 1a in 100 ml): 76.6%
Expulsion [%] ([3]; 250 mg of 1a in 100 ml): 79.6%
Expulsion [%] ([3]; 275 mg of 1a in 100 ml): 85.6%
Expulsion [%] ([3]; 301 mg of 1a in 100 ml): 83.5%
